Measurements: patent US10684290B2, “LKB1 related diagnostics and treatments of cancer” (Dignity Health, priority 2014, dated 2020)

How the values were obtained:
[1] = system: BiP/GRP78 in KRas/LKB1^wt and KRas/LKB1^null NSCLC tumors; assay: Immunohistochemical staining of BiP in NSCLC tumors of treated mice; type: in vivo; settings: 500 mg/kg twice a day for two days
Procedure: KRas^G12D/LKB1^lox/lox (KRas/LKB1^null) were generated by selective breeding of Lox-Stop-Lox KRas^G12D mice, purchased from Jackson Laboratories (Bar-Harbor, Me.), with LKB1^lox/lox mice obtained from Mouse Repository at the NCI and were inbred on a FVB background. KRas^G12D/LKB1^wt/wt (KRas/LKB1^wt) mice were generated by backcrossing Lox-Stop-Lox KRas^G12D onto a FVB background. Induction of lung tumors was performed. Briefly, six-week-old KRas/LKB1^null and KRas/LKB1^wt mice were transiently infected with 5×10^6 p.f.u. of Cre adenovirus (University of Iowa adenoviral core) via intranasal infection. At ˜6 weeks (KRas/LKB1^null) or ˜10 weeks (KRas/LKB1^wt) post-infection, mice underwent a baseline MRI scan to determine the baseline tumor burden. Mice with identified disease were randomized for daily treatment with either vehicle (PBS) or 500 mg/kg 2DG for three weeks, at which time mice received a follow-up MRI scan, sacrificed and the presence of disease confirmed by gross assessment and histology. For data generated in FIG. 2, KRas/LKB1^null and KRas/LKB1^wt mice with MRI positive tumors were treated either with 2DG (500 mg/kg) or vehicle (PBS) twice a day for two days before sacrifice and necropsy of tumor tissue. […]

[2] = system: H838-KDLKB1 and H838-LKB1 cells; assay: Immunoblot of ER stress markers in H838-LKB1 and H838-KDLKB1 cells; type: cell-based, human; settings: 12 h; 2DG 10 mM, Tm 1.25 ug/ml, BFA 30 ng/ml
Procedure: Cells were washed once with ice-cold PBS and incubated on ice for 30 min with a lysis buffer containing 10 mM Tris-HCl, 150 mM NaCl, 0.1% SDS and 1% IGEPAL (Sigma) to which a protease inhibitor cocktail (Sigma) and two phosphatase cocktails I and II (Sigma) were added immediately before use. Lysates were transferred to tubes and insoluble material was pelleted by centrifugation. For immunoblotting, 50-100 μg of total protein lysates were separated by SDS-PAGE and transferred to nitrocellulose. Blots were blocked in 5% milk/Tris buffered saline/0.1% TWEEN® 20 (polyoxyethylenesorbitan monolaurate) (TBST) and primary antibodies were diluted in 5% Bovine Serum Albumin (Sigma)/TBST and incubated overnight at 4° C. Blots were developed with ECL plus (GE) and visualized on a Kodak Image station.

[3] = system: A427-KDLKB1 and A427-LKB1 cells; assay: ATP measurement/cell viability (CellTiter-Glo), A427; type: cell-based, human; settings: 48 h; 2DG 10 mM, Tm 1.25 μg/ml, BFA 30 ng/ml; p<0.005
Procedure: (§1) 500 H838 or A427 cells stably expressing either LKB1 or KDLKB1 were plated in 96 well plates. The following day, cells were dosed with the indicated treatments for 48 h. Cellular ATP levels were assessed using the CellTiter-Glo Luminescent Cell Viability Assay substrate (Promega) according to manufacturer's instructions. Luminescence was read using the DTX 880 Multimode Detector. Cellular ATP/cell viability was calculated relative to vehicle treated control.

[4] = system: H838-KDLKB1 cells; assay: Clonogenic survival of H838-LKB1 and H838-KDLKB1 cells; type: cell-based, human; settings: for Clonogenic cell survival of H838-KDLKB1 cells: 24 h, 2DG 10 mM, Tm 1.25 μg/ml, BFA 30 ng/ml
Procedure: Clonogenic survival assay were performed in 6 well dishes. Briefly, 200 of indicated cells were plated per well and allowed to attach overnight. Were indicated cells were pre-treated with 125 ng/ml of cyclohexamide (CHX) for one hour. Indicated drugs were diluted fresh into media and cells were treated for 24 h, at which time the drug containing media was removed and replaced with fresh media. After 14 days, cells were fixed in 10% Methanol/10% Acetic Acid and stained with 0.5% crystal violet. After washing in ddH2O, plates were allowed to dry and colonies of 50 cells or more were counted. The surviving fraction was calculated according to methods described by Franken et al. [Clonogenic assay of cells in vitro, NAT. PROT. 1 (5) (2006) 2315-2319].

[5] = system: H838-KDLKB1 and H838-LKB1 cells; assay: Flow cytometry of ROS levels (CellROX staining); type: cell-based, human; settings: CellROX FACS, 12 h; 2DG 10 mM, Tm 1.25 μg/ml, BFA 30 ng/ml; baseline difference 1.4-fold
Procedure: To analyze levels of reactive oxygen species (ROS), 1×10^6 H838-KDLKB1 and H838-LKB1 cells were plated and treated with the indicated drugs. Cells were then stained with 0.5 1M CellRox™ for 30 min at 37° C., collected by trypsinization and washed with PBS. Following fixation with 2% Paraformaldehyde/PBS for 20 min, cells were brought to a final volume of 500 ll in PBS. CellRox™ staining of ROS was assessed using the Accuri C6 Flow Cytometer (BD Biosciences, San Jose, Calif., USA) with the threshold set at 80,000. A total of 30,000 events were collected per sample and ROS staining intensity determined using FCS Express 4 Flow Cytometer software. Background events were gated out using unstained control. Histogram plots were overlaid and histogram subtraction was performed by subtracting the integral of the stained control from the treated sample.

[6] = system: H838-KDLKB1 and H838-LKB1 cells; assay: ATP measurement/cell viability (CellTiter-Glo), H838; type: cell-based, human; settings: 48 h; 2DG 10 mM, Tm 1.25 μg/ml, BFA 30 ng/ml; p<0.005
Procedure: as §1

[7] = system: KRas/LKB1^wt and KRas/LKB1^null NSCLC tumors; assay: Murine transgenic models of KRas and KRas/LKB1 null NSCLC, MRI tumor volume; type: in vivo, mice
Procedure: KRas^G12D/LKB1^lox/lox (KRas/LKB1^null) were generated by selective breeding of Lox-Stop-Lox KRas^G12D mice, purchased from Jackson Laboratories (Bar-Harbor, Me.), with LKB1^lox/lox mice obtained from Mouse Repository at the NCI and were inbred on a FVB background. KRas^G12D/LKB1^wt/wt (KRas/LKB1^wt) mice were generated by backcrossing Lox-Stop-Lox KRas^G12D onto a FVB background. Induction of lung tumors was performed. Briefly, six-week-old KRas/LKB1^null and KRas/LKB1^wt mice were transiently infected with 5×10^6 p.f.u. of Cre adenovirus (University of Iowa adenoviral core) via intranasal infection. At ˜6 weeks (KRas/LKB1^null) or ˜10 weeks (KRas/LKB1^wt) post-infection, mice underwent a baseline MRI scan to determine the baseline tumor burden. Mice with identified disease were randomized for daily treatment with either vehicle (PBS) or 500 mg/kg 2DG for three weeks, at which time mice received a follow-up MRI scan, sacrificed and the presence of disease confirmed by gross assessment and histology. For data generated in FIG. 2, KRas/LKB1^null and KRas/LKB1^wt mice with MRI positive tumors were treated either with 2DG (500 mg/kg) or vehicle (PBS) twice a day for two days before sacrifice and necropsy of tumor tissue. Mice received daily checks to monitor for clinical signs of disease (labored breathing, weight loss) and all procedures were under a protocol approved by the St. Joseph's Hospital and Medical Center IACUC committee.
All the scans were performed using a 7T small animal, 30-cm horizontal-bore magnet and BioSpec Advance III spectrometer (Bruker, Billerica, Mass.) with a 72 mm quadrature volume coil. Each animal was induced and maintained under isoflurane anesthesia, 3.0% and 1.5%, respectively, and delivered with 1.5 L/min of 100% oxygen. During MRI scans, the animal's respiration was continually monitored by a small animal monitoring and gating system (SA Instruments, Stoney Brook, N.Y.) via a pillow sensor positioned on top of the abdomen. Mice were placed on a heated animal bed system (Bruker, Billerica, Mass.) and the normal body temperature (36-37° C.) was maintained. For MR imaging, a Fast Low Angle Shot (FLASH) sequence (TR/TE=40 ms/2 ms; FOV=60 mm×60 mm; Average=2; matrix=256×256; Flip Angle=30°) was used to acquire initial scout images, which were used for locating the lung region for subsequent images. Then T1 weighted images were obtained with the Fast Imaging with Steady State Precession (FISP) sequence (TR/TE 5.262 ms/2.0 ms; 8 segments; FOV=30 mm×30 mm; matrix=256×256; slice thickness=1.0 mm; Flip angle, 20°; 22 averages; total acquisition time=17 min). […] Change in tumor volumes was determined by comparison of baseline tumor volume to tumor volume following three weeks of treatment.

[8] = system: LKB1 expressing and LKB1 null LA/NSCLC cell lines; assay: Immunoblot of pAMPK and cleaved PARP in LKB1 expressing and LKB1 null cell lines; type: cell-based, human; settings: 20 mM
Procedure: Cells were incubated on ice for 30 minutes with a lysis buffer containing 10 mM Tris-HCL, 150 mM NaCl, 0.1% SDS and 1% IGEPAL (Sigma). Immediately before use, a protease inhibitor cocktail (Sigma) and two phosphatase cocktails I and II (Sigma) were added to the lysis buffer. Lysates were transferred to tubes and insoluble material was pelleted by centrifugation. Nuclear protein fractions were isolated using a NE-PER protein extraction kit (ThermoFisher) according to manufacturer's instructions. Protein concentration was determined using the Bio-Rad DC protein kit. For immunoblotting, 50-100 ug of total protein lysates was separated by SDS-PAGE and transferred to nitrocellulose. Blots were blocked in 5% milk/Tris buffered saline/0.1% TWEEN® 20 (polyoxyethylenesorbitan monolaurate) (TBST) and primary antibodies were diluted in 5% Bovine Serum Albumin (Sigma)/TBST and incubated overnight at 4° C. Blots were developed with ECL plus (GE) and visualized on a Kodak Image station.
Cells were washed once with ice-cold PBS and incubated on ice for 30 min with a lysis buffer containing 10 mM Tris-HCl, 150 mM NaCl, 0.1% SDS and 1% IGEPAL (Sigma) to which a protease inhibitor cocktail (Sigma) and two phosphatase cocktails I and II (Sigma) were added immediately before use. Lysates were transferred to tubes and insoluble material was pelleted by centrifugation. […]

[9] = Chronic dosing tolerability in vivo
[10] = KRas/LKB1^null mice, data not shown

SMILES	BiP protein levels in NSCLC tumor cells of KRas/LKB1^wt mice (IHC) [1]	Phosphorylated eIF2a in H838-KDLKB1 compared to H838-LKB1 cells [2]	Cellular ATP in A427-KDLKB1 compared to A427 re-expressing LKB1 [3]	Clonogenic cell survival of H838-KDLKB1 cells [4]	ROS levels in H838-KDLKB1, increase in intensity over H838-LKB1 [5]	Cellular ATP in H838-KDLKB1 compared to H838 re-expressing LKB1 [6]	Growth of NSCLC tumors (change in tumor volume by MRI) compared to vehicle ([7]; 500 mg/kg daily, three weeks, KRas/LKB1 wt and KRas/LKB1^null mice)	Response of KRas/LKB1^null tumors compared to KRas/LKB1^wt tumors ([7]; 500 mg/kg daily, three weeks, p=0.0032)	Effects upon metastasis, gross assessment at necropsy [7, 10]	Survival of mice in longer term studies [7, 10]	Phosphorylation of AMPK in LKB1 expressing H2009 cells (not in LKB1-deficient H23 cells) [8]	Cleavage of PARP (apoptosis) in LKB1 null LA cells (H2126, H838, H1395) ([8]; 12 and 18 hours)	Tolerability of chronic dosing [9]	Effect of added CHX on 2DG, BFA and Tm cytotoxicity in H838-KDLKB1 cells ([4]; 125 ng/ml CHX pre-treatment one hour, compared to 2DG, BFA or Tm alone, p<0.05)
O=CC[C@@H](O)[C@H](O)[C@H](O)CO [2DG, 2-deoxy-D-glucose]	significant increase in BiP protein levels	increased levels of phosphorylated eIF2a	reduced ATP	reduced cell survival	2 fold	reduced ATP	reduced the growth of NSCLC tumors	statistically greater response	did not observe any effects upon metastasis	no statistical impact upon survival	resulted in phosphorylation of AMPK	increased cleavage of poly(ADP-ribose) polymerase (PARP)	poorly tolerated	
C[C@H]1CCC/C=C/[C@@H]2C[C@H](O)C[C@H]2[C@H](O)/C=C/C(=O)O1 [BFA, brefeldin A]		increased levels of phosphorylated eIF2a	reduced ATP	reduced cell survival	1.2 fold	reduced ATP								
C[C@@H]1C[C@@H]([C@H](O)CC2CC(=O)NC(=O)C2)C(=O)[C@@H](C)C1 [CHX, Cycloheximide]														ameliorate 2DG, BFA and Tm cytotoxicity
